Experimental findings from patent US9096532B2, “Pyrazole inhibitors of COX-2 and sEH” (The Regents of the University of California, priority 2010, dated 2015) are described below.

Molecules are shown by their SMILES.

Series [1] is described as follows: Pharmacokinetics in mice by oral cassette dosing. The series is classed as in vivo. The conditions noted are these: oral cassette dosing at 5 mg/kg, blood.
Experimental: All the animal experiments were performed according to protocols approved by the Animal Use and Care Committee of University of California, Davis. […] Each cassette was orally administered to 4 mice at a dose of 5 mg/kg in 120-150 μl of vehicle depending on animal weight. […] The instrument was equipped with a linear ion trap and a Turbo V ion source and was operated in negative ion MRM mode. […] This was maintained for 3 min, then the gradient was returned to 30% solvent B in 2 min. The flow rate was 0.4 mL/min. The injection volume was 10 μL and the samples were kept at 4° C. in the auto sampler.
For a further series, the target named is T1, ovine COX-1 (Ovis aries, UniProt P05979).
T1 construct: purchased Cayman Chemical 700100
T1 sequence (P05979 25-600): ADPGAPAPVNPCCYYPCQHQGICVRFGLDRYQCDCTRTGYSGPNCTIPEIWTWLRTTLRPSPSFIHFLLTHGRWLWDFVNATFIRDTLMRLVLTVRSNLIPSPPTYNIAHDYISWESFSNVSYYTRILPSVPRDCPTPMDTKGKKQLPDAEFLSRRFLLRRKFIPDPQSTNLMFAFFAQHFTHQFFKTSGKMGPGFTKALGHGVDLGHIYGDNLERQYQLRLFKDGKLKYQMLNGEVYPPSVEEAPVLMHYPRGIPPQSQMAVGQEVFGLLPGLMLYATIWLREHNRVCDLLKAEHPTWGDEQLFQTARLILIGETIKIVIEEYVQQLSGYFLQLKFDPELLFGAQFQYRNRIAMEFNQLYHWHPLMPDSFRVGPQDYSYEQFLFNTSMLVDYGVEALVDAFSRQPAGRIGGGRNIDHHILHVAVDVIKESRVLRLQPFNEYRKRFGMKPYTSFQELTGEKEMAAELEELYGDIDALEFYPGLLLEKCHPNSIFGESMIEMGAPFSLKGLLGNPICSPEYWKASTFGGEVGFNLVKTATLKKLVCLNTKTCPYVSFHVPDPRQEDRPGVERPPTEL
Briefly: Cyclooxygenase inhibition assay (COX Fluorescent Inhibitor Screening Assay Kit), COX-1. The series is classed as biochemical. The conditions noted are these: read-out: COX-1 (% inhibition). As for the experimental part: (§1) Stock solutions of test compounds are dissolved in a minimum volume of DMSO. 10 μl of various concentrations of the test compound solutions, e.g., [I]final between 0.01 and 100 μM, are added to a series of supplied reaction buffer solutions (150 μl, 100 mM Tris-HCl, pH 8.0) with either COX-1 or COX-2 (10 μl) enzyme in the presence of Heme (10 μl) and a fluorometric substrate (10 μl). The reactions are initiated by quickly adding 10 μl of arachidonic acid solution and then incubating the system for two minutes at room temperature. […] The intensity of this fluorescence is proportional to the amount of resorufin, which is proportional to the amount of PGG2 present in the well during the incubation. Percent inhibition is calculated by comparison from the 100% initial activity sample value (no inhibitor).
as §1, with “compounds were” for “compounds are”, “μM, were” for “μM, are”, “reactions were” for “reactions are”, “then incubated” for “then incubating the system”, “inhibition was” for “inhibition is”

For another series, the target named is T2, human sEH (Homo sapiens, UniProt P34913).
T2 sequence (P34913 1-555): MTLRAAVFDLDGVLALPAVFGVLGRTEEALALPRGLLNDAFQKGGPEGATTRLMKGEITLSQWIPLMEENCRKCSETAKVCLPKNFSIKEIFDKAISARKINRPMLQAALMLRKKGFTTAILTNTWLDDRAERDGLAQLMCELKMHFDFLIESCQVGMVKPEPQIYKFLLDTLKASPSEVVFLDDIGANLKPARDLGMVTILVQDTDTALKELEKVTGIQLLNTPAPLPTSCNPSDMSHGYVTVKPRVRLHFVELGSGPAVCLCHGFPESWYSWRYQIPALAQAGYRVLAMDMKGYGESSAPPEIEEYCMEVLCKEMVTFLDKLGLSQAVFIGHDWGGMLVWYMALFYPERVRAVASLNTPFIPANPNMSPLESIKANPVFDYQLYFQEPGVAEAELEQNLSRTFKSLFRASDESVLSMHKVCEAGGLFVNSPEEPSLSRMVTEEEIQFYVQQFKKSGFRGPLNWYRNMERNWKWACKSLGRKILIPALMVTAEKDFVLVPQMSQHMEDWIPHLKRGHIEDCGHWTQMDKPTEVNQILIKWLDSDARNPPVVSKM
Put plainly: sEH IC50 assay, fluorescent-based with CMNPC substrate. The format is biochemical. The conditions noted are these: for IC50: kinetic fluorescent assay, means ± SD of three separate experiments. As for the experimental part: sEH inhibition IC50 values for the compounds presented herein can be assayed by a recombinant affinity assay using purified sEHs, from human, mouse or rat, in a fluorescent-based assay.
For the recombinant affinity assay, purified sEHs (human, mouse and rat) were used in a fluorescent-based assay to determine IC50 values. […] These IC50 values were calculated from at least three separate runs, each in triplicate, to obtain the statistics herein, e.g., standard deviation.

As to `NS(=O)(=O)c1ccc(-n2nc(CCCNC(=O)Nc3ccc(Cl)cc3)cc2-c2ccccc2)cc1` [Compound 21h, 4-(3-{3-[3-(4-Chloro-phenyl)-ureido]-propyl}-5-phenyl-pyrazol-1-yl)-benzenesulfonamide], in series [1], the exposure (AUC) was found to be 0.375 µM·h, the peak level (Cmax) was 190 nM, the time of peak concentration (Tmax) is 0.8 h and the t1/2 stood at 2.4 h. Besides, the inhibition at 100 µM at ovine COX-1 turned out to be 15.2%.
Regarding `CC(C)(C)c1cc(CNC(=O)Nc2cccc(C(F)(F)F)c2)nn1-c1ccc(S(C)(=O)=O)cc1` [Compound 11h, 1-[5-tert-Butyl-1-(4-methanesulfonyl-phenyl)-1H-pyrazol-3-ylmethyl]-3-(3-trifluoromethyl-phenyl)-urea], on ovine COX-1, the inhibition at 100 µM is 2.4%.
At human sEH, `CS(=O)(=O)c1ccc(C2=C(c3ccccc3)C(=O)OC2)cc1` [Rofecoxib, rofecoxib, reference compound] gave an IC50 of over 10 µM. Further, on ovine COX-1, the inhibition at 100 µM stood at 16.5%.
For the compound `NS(=O)(=O)c1ccc(-n2nc(CNC(=O)Nc3cccc(C(F)(F)F)c3)cc2-c2ccccc2)cc1` [Compound 11g, 4-{5-Phenyl-3-[3-(3-trifluoromethyl-phenyl)-ureidomethyl]-pyrazol-1-yl}-benzenesulfonamide], at ovine COX-1, the inhibition at 100 µM was found to be 16.9%.
The same measure, in the same setting: as for `CS(=O)(=O)c1ccc(-n2nc(CNC(=O)Nc3ccc(C(F)(F)F)cc3)cc2-c2ccccc2)cc1` [Compound 11e, 1-[1-(4-Methanesulfonyl-phenyl)-5-phenyl-1H-pyrazol-3-ylmethyl]-3-(4-trifluoromethyl-phenyl)-urea], the figure is 10.7%.
With `NS(=O)(=O)c1ccc(-n2nc(CCCNC(=O)NC34CC5CC(CC(C5)C3)C4)cc2-c2ccccc2)cc1` [Compound 21f, 4-{3-[3-(3-Adamantan-1-yl-ureido)-propyl]-5-phenyl-pyrazol-1-yl}-benzenesulfonamide], in series [1], the AUC amounted to 0.022 µM·h, the maximum concentration (Cmax) is 20 nM, the Tmax turned out to be 0.5 h and the t1/2 was 1.7 h. The inhibition at 100 µM at ovine COX-1 turned out to be 6.7%.
Turning to `CS(=O)(=O)c1ccc(-n2nc(CNC(=O)NC3CCCCCC3)cc2-c2ccccc2)cc1` [Compound 11b, 1-Cycloheptyl-3-[1-(4-methanesulfonyl-phenyl)-5-phenyl-1H-pyrazol-3-ylmethyl]-urea], at human sEH (compared to compound 11a), the “Improvement of sEH inhibition” value was found to be 10 fold. Moreover, on ovine COX-1, the inhibition at 100 µM was determined as 3.4%.
On human sEH, `Cc1cccc(C)c1NC(=O)NCCCc1cc(-c2ccccc2)n(-c2ccc(S(N)(=O)=O)cc2)n1` [Compound 21d, 4-(3-{3-[3-(2,6-Dimethyl-phenyl)-ureido]-propyl}-5-phenyl-pyrazol-1-yl)-benzenesulfonamide] yielded an IC50 of 1.55 ± 0.07 µM. In addition, the inhibition at 100 µM at ovine COX-1 stood at 6.2%.
As to `CS(=O)(=O)c1ccc(-n2nc(CNC(=O)Nc3ccc(OC(F)(F)F)cc3)cc2-c2ccccc2)cc1` [Compound 11d, 1-[1-(4-Methanesulfonyl-phenyl)-5-phenyl-1H-pyrazol-3-ylmethyl]-3-(4-trifluoromethoxy-phenyl)-urea], at ovine COX-1, the inhibition at 100 µM was determined as 10.4%.
For the compound `CS(=O)(=O)c1ccc(-n2nc(CNC(=O)Nc3cccc(C(F)(F)F)c3)cc2-c2ccccc2)cc1` [Compound 11f, 1-[1-(4-Methanesulfonyl-phenyl)-5-phenyl-1H-pyrazol-3-ylmethyl]-3-(3-trifluoromethyl-phenyl)-urea], at ovine COX-1, the inhibition at 100 µM is 7.8%.
With `NS(=O)(=O)c1ccc(-n2nc(CCCNC(=O)Nc3ccccc3)cc2-c2ccccc2)cc1` [Compound 21e, 4-{5-Phenyl-3-[3-(3-phenyl-ureido)-propyl]-pyrazol-1-yl}-benzenesulfonamide], in series [1], the AUC was 0.125 µM·h, the Cmax turned out to be 100 nM, the Tmax amounted to 0.5 h and the t1/2 is listed as 3.1 h. Besides, the inhibition at 100 µM at ovine COX-1 is 15.8%.
As for `CS(=O)(=O)c1ccc(-n2nc(CNC(=O)NC34CC5CC(CC(C5)C3)C4)cc2-c2ccccc2)cc1` [Compound 11a, 1-Adamantan-1-yl-3-[1-(4-methanesulfonyl-phenyl)-5-phenyl-1H-pyrazol-3-ylmethyl]-urea], at ovine COX-1, the inhibition at 100 µM was 12.7%.
Take `NS(=O)(=O)c1ccc(-n2nc(CCCNC(=O)NC3CCCCCC3)cc2-c2ccccc2)cc1` [Compound 21g, 4-{3-[3-(3-Cycloheptyl-ureido)-propyl]-5-phenyl-pyrazol-1-yl}-benzenesulfonamide]: in series [1], the area under the curve (AUC) is 0.1 µM·h, the highest level (Cmax) was 42 nM, the Tmax stood at 0.5 h and the t1/2 is on record as 3.5 h. The inhibition at 100 µM at ovine COX-1 came to 10.2%.
Take `COc1ccc2c(c1)c(CC(=O)O)c(C)n2C(=O)c1ccc(Cl)cc1` [Indomethacin, reference compound]: the IC50 against human sEH is over 10 µM.
Take `NS(=O)(=O)c1ccc(-n2nc(NC(=O)Nc3cccc(C(F)(F)F)c3)cc2-c2ccccc2)cc1` [Compound 7, 4-{5-Phenyl-3-[3-(3-trifluoromethyl-phenyl)-ureido]-pyrazol-1-yl}-benzenesulfonamide]: the inhibition at 100 µM on ovine COX-1 was found to be 33.9%.
Same read-out and setting: the result for `CS(=O)(=O)c1ccc(-n2nc(CCCNC(=O)Nc3cccc(C(F)(F)F)c3)cc2-c2ccccc2)cc1` [Compound 21a, 1-{3-[1-(4-Methanesulfonyl-phenyl)-5-phenyl-1H-pyrazol-3-yl]-propyl}-3-(3-trifluoromethyl-phenyl)-urea] reads 6.4%.
For the compound `NS(=O)(=O)c1ccc(-n2nc(CCNC(=O)Nc3cccc(C(F)(F)F)c3)cc2-c2ccccc2)cc1` [Compound 15, 4-(5-Phenyl-3-{2-[3-(3-trifluoromethyl-phenyl)-ureido]-ethyl}-pyrazol-1-yl)-benzenesulfonamide], the “Improvement of sEH inhibition” value at human sEH (compared to compound 11g) is 3 fold. The inhibition at 100 µM at ovine COX-1 was found to be 22%.

Broadly, the AUC is the area under the concentration-time curve, a measure of exposure. What is called Cmax is the peak of the concentration-time curve. The term Tmax denotes the time from dosing to the highest level. By inhibition is commonly meant how much of the control response was suppressed. Broadly, the IC50 is the concentration that gives 50% inhibition.
